In a melting point compilation (Tetko et al.; mined from patent text by program, amines drawn as free bases though some values may be those of a salt):

Row | Structure (SMILES) | melting point
1 | CC(=O)SCC(Cc1ccc(C)cc1)C(=O)Nc1cccc(C(=O)O)c1 (stereo unspecified) | 174 to 175 °C
2 | NC(=O)C1CCC(=O)N1CC#CCN1CCCC1 (stereo unspecified) | 146 to 148 °C
3 | COC(=O)Nc1ccc(Br)c(F)c1 | 121 to 122 °C
4 | COCc1nnc2n1-c1sc(Cl)cc1C(c1ccccc1[N+](=O)[O-])=NC2 | 204 to 205 °C
5 | COC(=O)c1ccc(N2C(=O)CCC2CN=[N+]=[N-])c([N+](=O)[O-])c1 (stereo unspecified) | 68 to 70 °C
6 | CC(C)(CCC#N)c1ccc(C(=O)Nc2cn3cc(-n4ccnc4)ccc3n2)cc1 | 233 to 234 °C
7 | CCOC(=O)C1CN(c2ccc(OC)cc2)CC1=O (stereo unspecified) | 58 to 60 °C
8 | CO[C@@H]1[C@@H](OC)[C@H](C)O[C@@H](ONC(=O)c2ccc(-c3cn(-c4ccc(OC(F)(F)F)cc4)cn3)cc2)[C@@H]1OC | 185 °C
9 | COc1ccc2cc(C(C)C(=O)O)ccc2c1Br (stereo unspecified) | 149 to 151 °C
10 | CC1(CCC#N)CCC2OCCOC2CC1=O (stereo unspecified) | 58 to 60 °C
11 | CC(O)=C(C#N)C(=O)Nc1ccc(F)cc1 | 165 to 166 °C
12 | COC(=O)c1cc(NS(C)(=O)=O)ccc1F | 135 to 137 °C
13 | COC(=O)Cc1c(-c2ccccc2)nn(-c2ccccc2)c1-c1ccccc1 | 80.5 to 81.5 °C
14 | Cc1cc(OCc2cnc(-c3ccc(OC(F)(F)F)cc3)nc2C(F)(F)F)ccc1OC(C)(C)C(=O)O | 154 °C
15 | CCNc1nc(NC(C)C)nc(OC)n1 | 95 to 96 °C
16 | CC(C)(C)OC(=O)NC(CO)C(=O)c1ccccc1 (stereo unspecified) | 69 to 71 °C

Row | Structure (SMILES) | melting point
17 | COC(=O)c1ccc(NC(=O)NCc2cccc(OC(C)=O)c2)cc1Cl | 113 to 114 °C
18 | CC(C)(Nc1ccccc1[N+](=O)[O-])C(=O)O | 132 to 133 °C
19 | CS(=O)(=O)Nc1ccc(OC2SCC(O)C(O)C2O)cn1 (stereo unspecified) | 201 to 204 °C
20 | CCOC(=O)C1(C(=O)OCC)CCC2(NCCc3cc(OC)c(OC)cc32)C(C2c3cc(OC)c(OC)cc3CCN2C(C)=O)C1 (stereo unspecified) | 146 to 149 °C
21 | Cc1nc(N)c2nc(C)n(CCOCCN)c2c1C | 130 to 133 °C
22 | Cn1c(CON)ncc(O)c1=O | 106 °C
23 | O=C(c1ccccc1)c1ccccc1I | 29 to 31 °C
24 | CC(=O)OC(C)c1cc2c(s1)C(=O)c1ccsc1C2=O (stereo unspecified) | 174 to 176 °C
25 | CN(C)NC(=O)N1CCC(Br)C1=O (stereo unspecified) | 78 to 79 °C
26 | C=C(C)C(=O)Oc1cccc(-c2cccc(OC(=O)C(=C)C)c2)c1 | 70 °C
27 | Nc1cc[nH]c(=O)c1Cl | 264 to 267 °C
28 | COC(=O)c1sc(C)c(C#N)c1N(C(=O)OC(C)(C)C)C(=O)OC(C)(C)C | 97 to 102 °C
29 | Oc1ccc(Cl)cc1C1(O)CCCCC1 | 110 °C
30 | CCOC(=O)/C(C)=C(/C)c1cn(C(c2ccccc2)(c2ccccc2)c2ccccc2)cn1 | 166 to 168 °C
31 | CCC(=O)OCOC(=O)Nc1ccc(Cl)cc1 | 90 to 91 °C
32 | Cc1scnc1-c1cc(C(C)(C)C)c(O)c(C(C)(C)C)c1 | 128 to 130 °C

Next, values leading:

Row | melting point | Structure (SMILES)
33 | 108 to 109 °C | CCOc1nc2cccc(C(=O)OC(C)OC(=O)OC3CCCCC3)c2n1Cc1ccc(-c2ccccc2-c2nc(=O)o[nH]2)cc1 (stereo unspecified)
34 | 135 to 138 °C | Cc1nnc2n1-c1sc(CCCN3CCOCC3)cc1C(c1ccccc1Cl)NC2 (stereo unspecified)
35 | 138 to 140 °C | CCOC(=O)c1cnc2sc3c(c2c1O)CCCC3
36 | 110 to 111 °C | Clc1cc(CCc2ccccn2)c2oc(-c3cccc4cccnc34)nc2c1
37 | 172 to 174 °C | N=C(Cl)c1c(Cc2ccc(Cl)cc2)nc2ccc(I)cc2c1O
38 | 136 to 137 °C | C=Cn1nc(-c2cc(C(C)(C)C)c(O)c(C(C)(C)C)c2)c2ccc(C)nc21
39 | 250 to 252 °C | CC(=O)Nc1ccc(C2=NNC(=O)NC2C)cc1Cl (stereo unspecified)
40 | 145 to 147 °C | CSc1ccc(/C=C2/C(C)=C(CCCN(O)C(N)=O)c3cc(F)ccc32)cc1
41 | 53 to 54 °C | CCCCCCCCCCCc1nccn1-c1nc(-c2ccc(Cl)cc2)c(CCCOc2ccccc2OC)o1
42 | 126 to 128 °C | CCCCCCOC(=O)NC(=N)c1ccc(NCc2nc3cc(C(=O)N(CCC(=O)OCC)c4ccccn4)ccc3n2C)cc1
43 | 176 to 177 °C | CCNc1nc(-c2ccc(F)cc2C)c2ccc(=O)n(-c3ccccc3F)c2n1
44 | 153 to 154 °C | CCCc1nn(Cc2ccc(OCc3nc(-c4ccccc4)oc3C)cc2)cc1CCC(=O)O
45 | 91 to 92 °C | C[C@]1(CN2CCC(OCc3ccc(C(F)(F)F)cc3)CC2)Cn2cc([N+](=O)[O-])nc2O1
46 | 90 to 92 °C | Cn1nnnc1-c1ccc(CCl)cc1
47 | 39 to 40 °C | CCOC(=O)c1ccc(SCC)c(-c2cc(C)no2)c1C
48 | 232 to 235 °C | CNC[C@H]1CC[C@H](c2nc3ccccc3[nH]2)CC1
49 | 136 to 138 °C | COc1ccc(C(=Cc2ccncc2)c2ccncc2)cc1OC1CCCC1
50 | 225 °C | O=C1NCc2c1ccc(Nc1ccccc1)c2Nc1ccccc1
51 | 99 to 110 °C | O=C(Cc1ccc(CN2CCC(=O)C(C(c3ccccc3)c3ccccc3)C2)cc1)OCC(=O)c1ccccc1 (stereo unspecified)
52 | 151 to 153 °C | O=C(Nc1ncnc2c1ncn2C1OC(CO)C(O)C1O)c1ccccc1 (stereo unspecified)

Row | melting point | Structure (SMILES)
53 | 243 to 244 °C | CC(=O)N(C)N(C)c1ccnc2c(NC(=O)c3c(Cl)cccc3Cl)cccc12
54 | 138 to 139 °C | Cc1nc2cc(C(=O)Nc3ccccc3)ccc2o1
55 | 119 to 121 °C | C=Cc1c(N)nc(-c2ccc(Cl)c(OC)c2F)nc1C(=O)OCc1ccccc1
56 | 149 to 151 °C | CCCc1nn(C)c2c(=O)[nH]c(Cc3ccc(N(CC)C(C)=O)cc3)nc12
57 | 246 to 248 °C | Cc1ccc(-n2c3c(c(=O)c4cccnc42)CCO3)cc1
58 | 105 to 106 °C | OCCOCC(O)c1ccc2ccccc2c1 (stereo unspecified)
59 | 151 to 152 °C | Cc1cc(SC(C)C)c(NC(=O)CSc2nc3ccccc3o2)c(SC(C)C)n1
60 | 128 to 130 °C | COc1cccc([C@H]2O[C@H](CC(=O)NC(C)CC(=O)O)C(=O)N(CC(C)(C)C)c3ccc(Cl)cc32)c1OC (stereo partly specified)
61 | 90 to 92 °C | CCC(C1OC(=O)c2ccccc21)[N+](=O)[O-] (stereo unspecified)
62 | > 250 °C | Cc1cc(-c2ccc(C(F)(F)F)cc2)nc(-c2ccnc(-c3cccc(S(N)(=O)=O)c3)n2)c1
63 | 103 to 105 °C | OC1CCCCC1Oc1ccc(Oc2ccccc2)cc1 (stereo unspecified)
64 | 227 °C | O=C(N[C@H]1CC[C@H](CCN2CCN(c3nccc4c3CCO4)CC2)CC1)c1ccc(C(F)(F)F)cc1
65 | 179 to 181 °C | O=C1C(c2cc3c(cc2O)OCC3)c2cc(F)ccc2N1C(c1ccccc1)c1ccccc1 (stereo unspecified)
66 | 165 to 166 °C | Cc1cc(-c2ccccc2)n2ncc(C(=O)c3ccccc3)c2n1
67 | 162 to 164 °C | COc1ccc(C2CN(S(=O)(=O)c3ccc(C)cc3)Cc3ccccc32)c(CO)c1OC (stereo unspecified)
68 | 274 to 277 °C | Nc1nc(-c2ccc(CCN3CCN(c4cccc(C(F)(F)F)c4)CC3)cc2)cs1
69 | 97 to 98 °C | CCOC(=O)CCc1cn(-c2ccccc2)nc1OCc1ccc(OCc2nc(-c3ccco3)oc2C)c(OC)c1
70 | 144 °C | c1ccc2c3c([nH]c2c1)C(c1ccc2c(c1)OCCO2)NCC3 (stereo unspecified)
71 | 83 °C | CCCN(C(=O)CC)c1c(C#N)cnn1-c1ccc(OC(F)(F)F)cc1Cl
